According to patent US8536354B2, “Steroidal ligands and their use in gene switch modulation” (Intrexon Corporation, priority 2008, dated 2013):
Residue numbers refer to the chain shown, from its start. Like-named read-outs stand apart in the source and are kept apart here.

Experiments:
[1] = biological target: wild-type Aedes aegypti EcR (AaEcR; GAL4-EcR DEF with VP16-RXR-USP chimera) (Aedes aegypti, UniProt P49880); assay: Two-hybrid gene switch assay, luciferase reporter, wild-type AaEcR, mouse NIH3T3 cells; type: cell-based
[2] = biological target: T1, wild-type CfEcR (GAL4-CfEcR-DEF with VP16-RXR-USP chimera) (Choristoneura fumiferana, UniProt O77255); assay: Two-hybrid gene switch assay, luciferase reporter, wild-type CfEcR, mouse NIH3T3 cells
T1 sequence (O77255 219-541): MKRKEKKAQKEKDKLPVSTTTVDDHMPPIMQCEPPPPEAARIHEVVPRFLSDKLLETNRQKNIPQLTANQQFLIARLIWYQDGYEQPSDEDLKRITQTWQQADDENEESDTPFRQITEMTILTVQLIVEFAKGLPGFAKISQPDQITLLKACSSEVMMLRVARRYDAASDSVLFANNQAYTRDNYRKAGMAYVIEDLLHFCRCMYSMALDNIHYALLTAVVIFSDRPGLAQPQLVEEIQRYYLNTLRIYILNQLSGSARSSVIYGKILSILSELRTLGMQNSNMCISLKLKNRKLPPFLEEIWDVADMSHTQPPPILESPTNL
T1 sequence (P28702 1-533 partner): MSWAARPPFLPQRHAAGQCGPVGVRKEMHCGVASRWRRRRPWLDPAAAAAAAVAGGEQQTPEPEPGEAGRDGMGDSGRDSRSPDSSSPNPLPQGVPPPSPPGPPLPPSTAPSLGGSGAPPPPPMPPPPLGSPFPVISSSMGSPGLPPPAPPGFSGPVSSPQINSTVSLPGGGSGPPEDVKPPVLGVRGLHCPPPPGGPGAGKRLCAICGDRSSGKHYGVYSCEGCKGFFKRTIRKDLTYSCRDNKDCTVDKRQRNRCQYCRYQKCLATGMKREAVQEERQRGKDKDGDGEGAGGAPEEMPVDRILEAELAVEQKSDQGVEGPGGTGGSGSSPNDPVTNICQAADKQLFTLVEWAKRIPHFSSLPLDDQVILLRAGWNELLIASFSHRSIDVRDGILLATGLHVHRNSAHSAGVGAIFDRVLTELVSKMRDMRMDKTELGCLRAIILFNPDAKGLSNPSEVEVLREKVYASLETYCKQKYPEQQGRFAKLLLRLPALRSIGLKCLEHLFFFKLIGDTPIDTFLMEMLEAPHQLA

[3] = biological target: wild-type Drosophila melanogaster EcR (DmEcR; GAL4-EcR DEF with VP16-RXR-USP chimera) (Drosophila melanogaster, UniProt P34021); assay: Two-hybrid gene switch assay, luciferase reporter, wild-type DmEcR, mouse NIH3T3 cells; type: cell-based
[4] = biological target: T2, wild-type Choristoneura fumiferana EcR (CfEcR-DEF) (Choristoneura fumiferana, UniProt O77255); assay: Two-hybrid gene switch assay, wild-type CfEcR-DEF (GAL4-EcR / VP16-RXR-USP chimera, luciferase) in NIH3T3 cells; conditions: for Emax: NIH3T3, 48 h, read-out: rel max FI (diacylhydrazine), CF
T2 sequence (O77255 219-541): T1 sequence (O77255 219-541) with A230E
T2 sequence (P28702 299-449 partner): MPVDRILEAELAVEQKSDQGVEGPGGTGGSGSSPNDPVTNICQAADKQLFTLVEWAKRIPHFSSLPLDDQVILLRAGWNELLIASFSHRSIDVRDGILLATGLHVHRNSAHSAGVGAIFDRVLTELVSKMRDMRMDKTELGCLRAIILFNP

[5] = biological target: T3, TmEcR (GAL4-EcR DEF with VP16-RXR partner) (Tenebrio molitor, UniProt O02035); assay: Two-hybrid gene switch assay, luciferase reporter, TmEcR, mouse NIH3T3 cells
T3 sequence (O02035 194-491): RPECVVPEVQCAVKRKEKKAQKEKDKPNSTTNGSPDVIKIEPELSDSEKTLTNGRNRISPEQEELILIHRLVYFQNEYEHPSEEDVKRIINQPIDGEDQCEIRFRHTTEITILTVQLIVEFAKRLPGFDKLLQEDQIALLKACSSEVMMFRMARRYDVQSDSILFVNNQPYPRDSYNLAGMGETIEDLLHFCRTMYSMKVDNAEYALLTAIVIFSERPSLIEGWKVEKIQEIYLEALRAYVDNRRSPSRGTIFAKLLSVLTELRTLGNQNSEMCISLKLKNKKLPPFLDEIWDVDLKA
T3 sequence (P28704 1-520 partner): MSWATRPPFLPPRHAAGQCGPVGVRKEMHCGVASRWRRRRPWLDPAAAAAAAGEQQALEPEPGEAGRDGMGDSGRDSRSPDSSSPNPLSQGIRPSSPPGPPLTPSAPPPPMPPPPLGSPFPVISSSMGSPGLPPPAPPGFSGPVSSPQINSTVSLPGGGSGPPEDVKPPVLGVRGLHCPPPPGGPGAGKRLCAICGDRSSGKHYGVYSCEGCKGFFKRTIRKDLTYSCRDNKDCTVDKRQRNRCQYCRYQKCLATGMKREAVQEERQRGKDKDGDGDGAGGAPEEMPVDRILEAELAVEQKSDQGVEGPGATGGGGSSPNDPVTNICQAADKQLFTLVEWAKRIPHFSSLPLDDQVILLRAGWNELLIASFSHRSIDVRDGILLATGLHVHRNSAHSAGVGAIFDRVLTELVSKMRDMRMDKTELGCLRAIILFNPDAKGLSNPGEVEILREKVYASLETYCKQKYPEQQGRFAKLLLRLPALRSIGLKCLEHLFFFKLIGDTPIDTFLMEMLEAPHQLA

[6] = biological target: T4, BaEcR (GAL4-EcR DEF with VP16-RXR-USP chimera) (Bemisia tabaci, UniProt A0A6M3RDR8); assay: Two-hybrid gene switch assay, luciferase reporter, BaEcR, mouse NIH3T3 cells; conditions: EC50, FIG. 14A/14B, GAL4-EcR(DEF) with VP16-RXR-USP chimera
T4 sequence (A0A6M3RDR8 115-530): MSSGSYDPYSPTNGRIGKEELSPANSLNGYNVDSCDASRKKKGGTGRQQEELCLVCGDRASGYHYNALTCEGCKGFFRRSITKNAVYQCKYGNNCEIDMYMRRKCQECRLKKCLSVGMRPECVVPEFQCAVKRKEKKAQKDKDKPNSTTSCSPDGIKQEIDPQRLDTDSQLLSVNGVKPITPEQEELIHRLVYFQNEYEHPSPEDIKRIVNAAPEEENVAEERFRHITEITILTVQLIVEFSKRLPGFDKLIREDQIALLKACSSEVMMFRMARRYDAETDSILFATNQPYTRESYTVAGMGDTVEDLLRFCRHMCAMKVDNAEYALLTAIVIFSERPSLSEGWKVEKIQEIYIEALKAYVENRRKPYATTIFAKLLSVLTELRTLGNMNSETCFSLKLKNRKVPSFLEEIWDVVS
T4 sequence (P28702 1-533 partner): T1 sequence (P28702 1-533 partner)

[7] = biological target: T5, MsEcR (GAL4-EcR DEF with VP16-RXR-USP chimera) (Manduca sexta, UniProt P49883); assay: Two-hybrid gene switch assay, luciferase reporter, MsEcR, mouse NIH3T3 cells; conditions: EC50, FIG. 15, GAL4-EcR (DEF) / VP16-RXR-USP chimera
T5 sequence (P49883 1-556): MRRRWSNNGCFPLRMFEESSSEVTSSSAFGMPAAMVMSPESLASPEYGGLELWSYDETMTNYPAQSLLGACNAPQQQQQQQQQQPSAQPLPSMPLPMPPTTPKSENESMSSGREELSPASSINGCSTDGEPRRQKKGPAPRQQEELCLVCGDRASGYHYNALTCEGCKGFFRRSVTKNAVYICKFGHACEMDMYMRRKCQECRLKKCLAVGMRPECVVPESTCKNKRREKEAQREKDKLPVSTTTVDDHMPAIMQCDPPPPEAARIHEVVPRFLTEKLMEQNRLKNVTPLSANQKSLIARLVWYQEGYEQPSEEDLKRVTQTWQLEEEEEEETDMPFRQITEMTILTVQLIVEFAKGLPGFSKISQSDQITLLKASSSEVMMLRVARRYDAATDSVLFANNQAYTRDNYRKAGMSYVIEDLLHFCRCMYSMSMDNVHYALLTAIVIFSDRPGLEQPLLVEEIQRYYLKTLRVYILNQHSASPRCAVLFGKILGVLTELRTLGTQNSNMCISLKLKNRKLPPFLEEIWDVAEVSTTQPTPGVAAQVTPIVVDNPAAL
T5 sequence (P28702 1-533 partner): T1 sequence (P28702 1-533 partner)

Sequence of wild-type Drosophila melanogaster EcR (DmEcR; GAL4-EcR DEF with VP16-RXR-USP chimera) (P34021 with tags, fused parts or gaps limits assumed): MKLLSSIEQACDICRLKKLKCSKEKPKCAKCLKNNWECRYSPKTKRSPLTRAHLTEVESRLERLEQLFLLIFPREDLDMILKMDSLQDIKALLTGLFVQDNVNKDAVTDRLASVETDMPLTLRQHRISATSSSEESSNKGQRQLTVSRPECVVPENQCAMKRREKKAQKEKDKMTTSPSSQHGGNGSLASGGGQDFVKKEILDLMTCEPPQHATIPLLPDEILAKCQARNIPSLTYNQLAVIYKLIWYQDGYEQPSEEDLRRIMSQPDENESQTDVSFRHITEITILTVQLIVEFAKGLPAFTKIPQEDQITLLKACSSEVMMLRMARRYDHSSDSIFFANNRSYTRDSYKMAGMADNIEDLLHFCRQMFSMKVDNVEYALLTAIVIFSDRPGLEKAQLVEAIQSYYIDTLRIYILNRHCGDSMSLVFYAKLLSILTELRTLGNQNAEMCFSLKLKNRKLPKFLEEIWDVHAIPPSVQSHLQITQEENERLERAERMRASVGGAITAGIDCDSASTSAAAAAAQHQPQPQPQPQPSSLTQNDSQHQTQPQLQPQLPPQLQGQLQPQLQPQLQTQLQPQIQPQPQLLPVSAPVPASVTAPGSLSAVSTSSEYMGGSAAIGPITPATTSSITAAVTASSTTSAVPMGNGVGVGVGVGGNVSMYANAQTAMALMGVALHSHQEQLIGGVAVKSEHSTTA
Sequence of wild-type Aedes aegypti EcR (AaEcR; GAL4-EcR DEF with VP16-RXR-USP chimera) (P49880 with tags, fused parts or gaps limits assumed, change not shown): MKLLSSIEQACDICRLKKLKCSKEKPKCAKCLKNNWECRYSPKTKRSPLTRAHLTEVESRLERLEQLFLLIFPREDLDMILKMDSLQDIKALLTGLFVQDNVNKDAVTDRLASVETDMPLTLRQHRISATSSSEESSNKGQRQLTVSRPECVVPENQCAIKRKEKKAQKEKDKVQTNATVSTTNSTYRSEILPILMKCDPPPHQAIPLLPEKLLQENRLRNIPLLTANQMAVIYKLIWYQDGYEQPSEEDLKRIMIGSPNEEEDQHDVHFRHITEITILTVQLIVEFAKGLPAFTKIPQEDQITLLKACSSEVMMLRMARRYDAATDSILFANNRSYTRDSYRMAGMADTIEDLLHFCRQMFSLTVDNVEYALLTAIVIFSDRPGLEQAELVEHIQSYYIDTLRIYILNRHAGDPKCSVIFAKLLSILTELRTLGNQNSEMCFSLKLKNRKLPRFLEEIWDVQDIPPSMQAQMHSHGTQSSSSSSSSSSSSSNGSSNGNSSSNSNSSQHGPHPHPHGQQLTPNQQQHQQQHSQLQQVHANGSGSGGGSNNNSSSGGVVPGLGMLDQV

For `CC(C)(O)CC[C@@H](O)[C@](C)(O)[C@H]1CC[C@@]2(O)C3=CC(=O)[C@@H]4C[C@@H](O)[C@@H](O)C[C@]4(C)[C@H]3CC[C@]12C` [Compound 25], the EC50 ([1]; FIG. 8, read-out: EC50) was 0.93 µM.
`CO[C@H](CCC(C)C)[C@](C)(O)[C@H]1CC[C@@]2(OC)C3=CC(=O)[C@@H]4C[C@@H](O)[C@@H](O)C[C@]4(C)[C@H]3CC[C@]12C` [Compound 21] showed an EC50 [2] greater than 33 µM.
With `CC(C(O)CCC(C)(C)O)C1CCC2(O)C3=CC(=O)C4CC(O)C(O)CC4(C)C3CCC12C` (stereo not shown) [Compound 24] the EC50 [2] was greater than 33 µM.
Work on `CC(C)CCC(O)C(C)(O)C1CCC2(O)C3=CC(=O)C4(O)CC(O)C(O)CC4(C)C3C(O)CC12C` (stereo not shown) [Compound 28] yielded an EC50 ([3]; EC50, FIG. 8) of 0.112 µM.
Work on `CO[C@H]1CC2(C)C(C[C@H]1OC)C(=O)C=C1C2CCC2(C)C([C@@](C)(O)[C@@H](CCC(C)(C)O)OC)CC[C@@]12OC` (stereo partly shown) [Compound 15] yielded an EC50 [2] greater than 33 µM.
`COC(C)(C)CCC(O)C(C)(O)C1CCC2(O)C3=CC(=O)C4CC(O)C(O)CC4(C)C3CCC12C` (stereo not shown) [20E-25-methyl ether] gave an EC50 [4] greater than 33 µM and an Emax [4] of 0.13%.
`CCCCO[C@H](CCC(C)(C)O)[C@](C)(O)C1CC[C@@]2(O)C3=CC(=O)C4C[C@@H](O)[C@@H](O)CC4(C)C3CCC12C` (stereo partly shown) [Compound 8] gave an EC50 ([3]; EC50, FIG. 8) of 14.6 µM, an EC50 [2] greater than 33 µM and an EC50 ([1]; FIG. 8, read-out: EC50) of 2.72 µM.
Work on `CCCO[C@H](CCC(C)(C)O)[C@](C)(O)C1CC[C@@]2(O)C3=CC(=O)C4C[C@@H](O)[C@@H](O)CC4(C)C3CCC12C` (stereo partly shown) [20E-22-n-propyl ether] yielded an EC50 [4] greater than 33 µM and an Emax [4] of 0.5%.
In the case of `CC(C)(O)CC[C@@H](OCc1ccccc1)[C@](C)(O)C1CC[C@@]2(O)C3=CC(=O)C4C[C@@H](O)[C@@H](O)CC4(C)C3CCC12C` (stereo partly shown) [Compound 9], the EC50 [2] is reported as greater than 33 µM.
For `COC(C)(C)CC[C@@H](O)[C@](C)(O)[C@H]1CC[C@@]2(O)C3=CC(=O)[C@@H]4C[C@@H](O)[C@@H](O)C[C@]4(C)[C@H]3CC[C@]12C` [Compound 10], the EC50 ([3]; EC50, FIG. 8) was 5.45 µM and the EC50 ([1]; EC50, FIG. 8) was roughly 0.3 µM.
For `CO[C@H](CCC(C)C)[C@](C)(O)C1CC[C@@]2(O)C3=CC(=O)C4C[C@@H](O)[C@@H](O)CC4(C)C3=CCC12C` (stereo partly shown) [Compound 22], the EC50 [2] was 13.7 µM.
Molecule `CO[C@H](CCC(C)(C)OC)[C@](C)(O)[C@H]1CC[C@@]2(O)C3=CC(=O)[C@@H]4C[C@@H](O)[C@@H](O)C[C@]4(C)[C@H]3CC[C@]12C` [Compound 14] has an EC50 ([3]; EC50, FIG. 8) of 1.58 µM and an EC50 [2] greater than 33 µM.
`CO[C@@]12CC[C@H]([C@@](C)(O)[C@H](O)CCC(C)C)[C@@]1(C)CC[C@H]1C2=CC(=O)[C@@H]2C[C@@H](O)[C@@H](O)C[C@@]21C` [Compound 17] gave an EC50 [2] of roughly 20 µM.
For `CCO[C@H](CCC(C)(C)O)[C@](C)(O)C1CC[C@@]2(O)C3=CC(=O)C4C[C@@H](O)[C@@H](O)CC4(C)C3CCC12C` (stereo partly shown) [20E-22-ethyl ether], the Emax [4] was 77%.
Work on `CC(C)(O)CC[C@@H](O)[C@](C)(O)[C@H]1CC[C@@]2(O)C3=CC(=O)[C@]4(O)C[C@@H](O)[C@@H](O)C[C@]4(C)[C@H]3CC[C@]12C` [polypodine B, reference compound] yielded an EC50 ([4]; wt-CfEcR gene switch, NIH3T3, Example One) of roughly 12 µM.
For `C=CCO[C@H](CCC(C)(C)O)[C@](C)(O)C1CC[C@@]2(O)C3=CC(=O)C4C[C@@H](O)[C@@H](O)CC4(C)C3CCC12C` (stereo partly shown) [Compound 7], the EC50 ([3]; EC50, FIG. 8) was roughly 5 µM and the EC50 [2] was greater than 33 µM.
Work on `CO[C@H]1C[C@@]2(C)[C@@H](C[C@H]1O)C(=O)C=C1[C@@H]2CC[C@]2(C)[C@@H]([C@@](C)(O)[C@@H](CCC(C)C)OC)CC[C@@]12O` [Compound 19] yielded an EC50 [2] of 27.8 µM.
`CC(C)CC[C@@H](O)[C@](C)(O)[C@H]1CC[C@@]2(O)C3=CC(=O)[C@@H]4C[C@@H](O)[C@@H](O)C[C@]4(C)[C@H]3CC[C@]12C` [PoA, ponasterone A, reference compound] gave an EC50 ([5]; EC50, FIG. 14A/14B, GAL4-EcR(DEF)) of 0.044 µM, an EC50 ([5]; EC50, FIG. 16, GAL4-EcR (DEF)) of 0.07 µM and an EC50 [6] of 0.031 µM. The EC50 ([3]; EC50, FIG. 4C) was 0.113 µM, the EC50 ([3]; EC50, FIG. 16, GAL4-EcR (DEF) / VP16-RXR-USP chimera) was 0.84 µM and the EC50 [2] was 8.42 µM. It also gave an EC50 [7] of 0.17 µM.
